Assay results: US10273251B2, “Composition, cured film, near infrared ray absorption filter, solid-state imaging device, infrared sensor, and compound” (FUJIFILM Corporation, priority 2014, dated 2019)

How the values were obtained:
Format in all cases: physicochemical
[1] = Evaluation of maximum absorption wavelength, half-width and absorbance ratio (liquid absorption spectrum); details: 2.5×10^−6 mol/L, optical path length 10 mm
Experimental: —Evaluation of Maximum Absorption Wavelength, Half-Width, and Absorbance Ratio—Respective compounds were dissolved in measuring solvents (concentration: 2.5×10^−6 mol/L) described in the table below so as to measure an absorption spectrum (Optical path length: 10 mm).
Maximum absorption wavelengths (λmax) of absorption spectrums, half-widths of the maximum absorption wavelengths, and absorbance ratios (550 nm/λmax) which are values obtained by dividing absorbance at a wavelength of […] by absorbance at the maximum absorption wavelength with respect to respective compounds are presented in Table 1 below. FIG. 3 illustrates an absorption spectrum of the compound D-1 in chloroform.

[2] = Heat resistance of near infrared ray absorption filter (ΔEab before/after heating); details: filter 1.0 μm, 7.5 mass % compound; 260° C. for 30 minutes on hot plate; ΔEab class
Experimental: (§1) Compositions below were mixed so as to prepare the composition. A solid content of the composition is 31 mass % and a content of the near infrared ray absorption substance with respect to the total solid content of the composition was 7.5 mass %.
(§2) Glass substrates (1737 manufactured by Corning Incorporated) were coated with respective compositions by using a spin coater such that film thicknesses after drying become 1.0 μm, and a heating treatment (prebaking) was performed for 120 seconds by using a hot plate of 100° C.
(§3) Subsequently, beta exposure was performed by 500 mJ/cm^2 by using an i-ray stepper exposure device FPA-3000i5+ (manufactured by Canon Inc.). Subsequently, puddle development was performed at 23° C. for 60 seconds by using CD-2060 (manufactured by Fujifilm Electronic Materials), a rinse treatment was performed with pure water on a glass substrate on which a beta coloration layer was formed, and spray drying was performed.
(§4) The heating treatment (post baking) was performed for 300 seconds by using a hot plate of 200° C., so as to obtain a near infrared ray absorption filter.
After the near infrared ray absorption filter was heated to 260° C. for 30 minutes by a hot plate, the ΔEab value of a color difference before and after heat resistance test was measured using a color meter MCPD-1000 (manufactured by Otsuka Electronics Co., Ltd.), so as to evaluate a criterion below. A smaller ΔEab value indicates more satisfactory heat resistance.

[3] = Light fastness of near infrared ray absorption filter (ΔEab before/after xenon lamp); details: filter 1.0 μm, 7.5 mass % compound; xenon lamp 50,000 lux for 20 hours; ΔEab class
Experimental: as §1, §2, §3, §4
After the near infrared ray absorption filter was irradiated with a xenon lamp was applied by 50,000 lux for 20 hours (corresponding to 1,000,000 lux·h), an ΔEab value of a color difference before and after a light-fast test was measured. A smaller ΔEab value indicates more satisfactory light fastness.
The ΔEab value is a value obtained from a color difference equation below according to a CIE 1976 (L*, a*, b*) space color system (Handbook of Color Science, New Edition, edited by the Color Science Association of Japan, (1985), p. 266). ΔEab={(ΔL*)^2[…](Δa*)^2+(Δb*)^2}^1/2

[4] = Solubility of the compound to propylene glycol monomethyl ether acetate; details: visually observed
Description: Solubility of the compound to propylene glycol monomethyl ether acetate was visually observed.

[5] = Evaluation of maximum absorption wavelength, half-width and absorbance ratio (liquid absorption spectrum); details: 2.5×10^−6 mol/L, optical path length 10 mm; remark: listed apart in the source
[6] = measuring solvent ethyl acetate
[7] = measuring solvent tetrahydrofuran

Half-width ([1]; measuring solvent chloroform) [nm] | Maximum absorption wavelength ([1]; measuring solvent chloroform) [nm] | Half-width [1, 6] [nm] | Maximum absorption wavelength [1, 6] [nm] | Half-width [1, 7] [nm] | Maximum absorption wavelength [1, 7] [nm] | Heat resistance [2] | Light fastness [3] | Solubility [4] | Absorbance ratio (550 nm/λmax) ([5]; measuring solvent chloroform) | Absorbance ratio (550 nm/λmax) [5, 6] | Absorbance ratio (550 nm/λmax) [5, 7] | SMILES
28 | 884 | – | – | – | – | 5 (ΔEab value<3) | 5 (ΔEab value<3) | A (Solubility 2% or greater) | 0.01 | – | – | CCCCCCCCCCC(CCCCCCCC)COc1cccc(-c2c3/c(=C(\C#N)c4cnc5cc(Cl)c(Cl)cc5n4)n(B(c4ccccc4)c4ccccc4)c(-c4cccc(OCC(CCCCCCCC)CCCCCCCCCC)c4)c3/c(=C(\C#N)c3cnc4cc(Cl)c(Cl)cc4n3)n2B(c2ccccc2)c2ccccc2)c1 [Compound D-31]
28 | 884 | – | – | – | – | 5 (ΔEab value<3) | 5 (ΔEab value<3) | A (Solubility 2% or greater) | 0.01 | – | – | CC(CCC(COc1cccc(-c2c3/c(=C(\C#N)c4cnc5cc(Cl)c(Cl)cc5n4)n(B(c4ccccc4)c4ccccc4)c(-c4cccc(OCC(CCC(C)CC(C)(C)C)C(C)CC(C)(C)C)c4)c3/c(=C(\C#N)c3cnc4cc(Cl)c(Cl)cc4n3)n2B(c2ccccc2)c2ccccc2)c1)C(C)CC(C)(C)C)CC(C)(C)C [Compound D-32]
30 | 748 | – | – | – | – | 5 (ΔEab value<3) | 5 (ΔEab value<3) | A (Solubility 2% or greater) | 0.003 | – | – | COc1ccc2oc(/C(C#N)=c3/c4c(-c5cccc(OCC(CCC(C)CC(C)(C)C)C(C)CC(C)(C)C)c5)n(B(c5ccccc5)c5ccccc5)/c(=C(/C#N)c5nc6cc(C)ccc6o5)c4c(-c4cccc(OCC(CCC(C)CC(C)(C)C)C(C)CC(C)(C)C)c4)n3B(c3ccccc3)c3ccccc3)nc2c1 [Compound D-43]
31 | 884 | – | – | – | – | 5 (ΔEab value<3) | 5 (ΔEab value<3) | C (Solubility less than 0.5%) | 0.019 | – | – | CCCCCCCCC(CCCCCC)COc1ccc(-c2c3/c(=C(\C#N)c4cnc5cc(Cl)c(Cl)cc5n4)n(B(c4ccccc4)c4ccccc4)c(-c4ccc(OCC(CCCCCC)CCCCCCCC)cc4)c3/c(=C(\C#N)c3cnc4cc(Cl)c(Cl)cc4n3)n2B(c2ccccc2)c2ccccc2)cc1 (stereo not drawn) [Compound E-1, reference compound]

Continued, compound first:

SMILES | Half-width ([1]; measuring solvent chloroform) [nm] | Maximum absorption wavelength ([1]; measuring solvent chloroform) [nm] | Half-width [1, 6] [nm] | Maximum absorption wavelength [1, 6] [nm] | Half-width [1, 7] [nm] | Maximum absorption wavelength [1, 7] [nm] | Heat resistance [2] | Light fastness [3] | Solubility [4] | Absorbance ratio (550 nm/λmax) ([5]; measuring solvent chloroform) | Absorbance ratio (550 nm/λmax) [5, 6] | Absorbance ratio (550 nm/λmax) [5, 7]
CCCCCCCCC(CCCCCC)COc1cccc(-c2c3/c(=C(\C#N)c4cnc5cc(Cl)c(Cl)cc5n4)n(B(c4ccccc4)c4ccccc4)c(-c4cccc(OCC(CCCCCC)CCCCCCCC)c4)c3/c(=C(\C#N)c3cnc4cc(Cl)c(Cl)cc4n3)n2B(c2ccccc2)c2ccccc2)c1 [Compound D-1] | 29 | 884 | 30 | 880 | 29 | 884 | 5 (ΔEab value<3) | 5 (ΔEab value<3) | A (Solubility 2% or greater) | 0.011 | 0.011 | 0.01
COCCOCCOc1cccc(-c2c3/c(=C(\C#N)c4cnc5cc(Cl)c(Cl)cc5n4)n(B(c4ccccc4)c4ccccc4)c(-c4cccc(OCCOCCOC)c4)c3/c(=C(\C#N)c3cnc4cc(Cl)c(Cl)cc4n3)n2B(c2ccccc2)c2ccccc2)c1 [Compound D-4] | 29 | 883 | – | – | – | – | 4 (3≤ΔEab value<5) | 5 (ΔEab value<3) | B (Solubility 0.5% or greater and less than 2%) | 0.012 | – | –
CCCCCCCC/C=C\CCCCCCCCOc1cccc(-c2c3/c(=C(\C#N)c4cnc5cc(Cl)c(Cl)cc5n4)n(B(c4ccccc4)c4ccccc4)c(-c4cccc(OCCCCCCCC/C=C\CCCCCCCC)c4)c3/c(=C(\C#N)c3cnc4cc(Cl)c(Cl)cc4n3)n2B(c2ccccc2)c2ccccc2)c1 [Compound D-5] | 29 | 884 | – | – | – | – | 5 (ΔEab value<3) | 5 (ΔEab value<3) | B (Solubility 0.5% or greater and less than 2%) | 0.01 | – | –
Cc1cc2ncc(/C(C#N)=c3/c4c(-c5cccc(OCC(CCC(C)CC(C)(C)C)C(C)CC(C)(C)C)c5)n(B(c5ccccc5)c5ccccc5)/c(=C(/C#N)c5cnc6cc(C)c(C)cc6n5)c4c(-c4cccc(OCC(CCC(C)CC(C)(C)C)C(C)CC(C)(C)C)c4)n3B(c3ccccc3)c3ccccc3)nc2cc1C [Compound D-6] | 32 | 872 | – | – | – | – | 5 (ΔEab value<3) | 5 (ΔEab value<3) | A (Solubility 2% or greater) | 0.01 | – | –
CCC(C)COc1cccc(-c2c3/c(=C(\C#N)c4cnc5ccccc5n4)n(B(c4ccccc4)c4ccccc4)c(-c4cccc(OCC(C)CC)c4)c3/c(=C(\C#N)c3cnc4ccccc4n3)n2B(c2ccccc2)c2ccccc2)c1 [Compound D-7] | 29 | 863 | – | – | – | – | 5 (ΔEab value<3) | 5 (ΔEab value<3) | A (Solubility 2% or greater) | 0.013 | – | –
CCCCCCCCC(CCCCCCCC)COc1cccc(-c2c3/c(=C(\C#N)c4cnc5cc(C)ccc5n4)n(B(c4ccccc4)c4ccccc4)c(-c4cccc(OCC(CCCCCCCC)CCCCCCCC)c4)c3/c(=C(\C#N)c3cnc4cc(C)ccc4n3)n2B(c2ccccc2)c2ccccc2)c1 [Compound D-8] | 31 | 866 | – | – | – | – | 5 (ΔEab value<3) | 5 (ΔEab value<3) | A (Solubility 2% or greater) | 0.01 | – | –
CCCCC(CC)COc1cccc(-c2c3/c(=C(\C#N)c4ccc5ccccc5n4)n(B(c4ccccc4)c4ccccc4)c(-c4cccc(OCC(CC)CCCC)c4)c3/c(=C(\C#N)c3ccc4ccccc4n3)n2B(c2ccccc2)c2ccccc2)c1 [Compound D-10] | 30 | 814 | – | – | – | – | 5 (ΔEab value<3) | 5 (ΔEab value<3) | A (Solubility 2% or greater) | 0.01 | – | –
CCCCCCCCCCCCCCCCCCOc1cccc(-c2c3/c(=C(\C#N)c4nc5ccccc5s4)n(B(c4ccccc4)c4ccccc4)c(-c4cccc(OCCCCCCCCCCCCCCCCCC)c4)c3/c(=C(\C#N)c3nc4ccccc4s3)n2B(c2ccccc2)c2ccccc2)c1 [Compound D-11] | 30 | 779 | – | – | – | – | 5 (ΔEab value<3) | 5 (ΔEab value<3) | B (Solubility 0.5% or greater and less than 2%) | 0.009 | – | –
CC(CCC(COc1cccc(-c2c3/c(=C(\C#N)c4cnc5ccccc5n4)n(B(c4ccccc4)c4ccccc4)c(-c4cccc(OCC(CCC(C)CC(C)(C)C)C(C)CC(C)(C)C)c4)c3/c(=C(\C#N)c3cnc4ccccc4n3)n2B(c2ccccc2)c2ccccc2)c1)C(C)CC(C)(C)C)CC(C)(C)C [Compound D-28] | 29 | 863 | – | – | – | – | 5 (ΔEab value<3) | 5 (ΔEab value<3) | A (Solubility 2% or greater) | 0.006 | – | –
CCCCCCCCCCC(CCCCCCCC)COc1cccc(-c2c3/c(=C(\C#N)c4cnc5ccccc5n4)n(B(c4ccccc4)c4ccccc4)c(-c4cccc(OCC(CCCCCCCC)CCCCCCCCCC)c4)c3/c(=C(\C#N)c3cnc4ccccc4n3)n2B(c2ccccc2)c2ccccc2)c1 [Compound D-29] | 28 | 862 | – | – | – | – | 5 (ΔEab value<3) | 5 (ΔEab value<3) | A (Solubility 2% or greater) | 0.006 | – | –
